Results on 1 compound are retold here after patent US20200085812A1, “HEAT SHOCK PROTEIN INDUCERS AND FRONTOTEMPORAL DISORDERS” (Orphazyme A/S, priority 2017, published 2020).

The structures appear in SMILES notation.

For experiment [1], the system named is HSP70. Description: HSP70 immunostaining of brain and spinal cord of mVCP mice. The format is in vivo, mouse. How it is done: (§1) Arimoclomol treatment: Male mutant VCP (mVCP) mice were treated with Arimoclomol (120 mg/kg daily; orally in drinking water), from the start of symptom onset at 4 months, until close to end-stage at 14 months. Transgenic mice over-expressing wild-type human VCP (wt-VCP) were used as controls, and 10 male mice per group were studied; a sample size sufficient to test for statistical significance at P<0.05 in a single sex group.
(§2) Brain and spinal cords were harvested from mice in all experimental groups following transcardial perfusion with saline followed by 4% paraformaldehyde (PFA). Brain and spinal cords were then kept in 4% PFA for 12 hours before being transferred to a 30% sucrose solution. Cross-sections of brain and spinal cords were cut at 20 μm and blocked in 10% Normal Goat serum with 0.1% Triton X100 in PBS before primary antibodies were added for 1 hour at room temperature. Primary antibodies: Rabbit anti-TDP-43 [1:500], Rabbit anti-ubiquitin [1:500], mouse anti-phospho tau (AT8) [1:100], Rabbit/mouse anti-Beta-3 tubulin [1:100], mouse anti-HSP70 [1:100], Mouse anti-p62 [1:200], Rabbit anti-LC3 [1:500]Rabbit anti-Iba1 [1:100], anti neurofilament 2H3 [1:20], Synaptic vesicle protein [1:20], Fluoromyelin Red myelin stain [1:300]. Fluorescently labelled or biotinylated secondary antibodies were used 1:1000 for 2 hours at room temperature. 4′6-Diamidino-2-Phenylindole, Dihydrochloride (DAPI) was used to counterstain for nuclei in all fluorescent images. Imaging of tissue was using a standard Leica light/fluorescent microscope or a LSM 780 confocal microscope.
(§3) Fluorescent images were visualised under a Leica fluorescent microscope and analysed using Leica Application Suite software (Leica Microsystems, Germany).

Experiment [2] relates to mutant VCP (mVCP) mice. Description: TUNEL assay for apoptotic cells in brain. The format is in vivo, mouse. As to conditions: 120 mg/kg daily orally, 4 to 14 months, FIG. 9. Here is the method: as §1
Apoptosis in the brain was assessed by Terminal deoxynucleotidyl transferase (TdT) dUTP Nick-End Labeling (TUNEL) assay for apoptotic cells, where nuclei containing double-stranded breaks in the DNA fluoresce green (Fluoroscein-tagged), indicating DNA degradation at the later stage of apoptosis (FIG. 9). In some mVCP mice, TUNEL-positive nuclei in small areas of layer I in the cortex were detected which were not seen in control animals, indicating brain cells undergoing apoptosis.

The subject of experiment [3] is HSP70. Briefly: HSP70 immunostaining of mVCP patient iPSC-derived motor neurons. Type of experiment: cell-based, human. The following applies: 10 μM for 24 hours, FIG. 12 B. How it is done:
(§4) iPSCs were maintained on Geltrex (Life Technologies) with Essential 8 Medium media (Life Technologies), and passaged using EDTA (Life Technologies, 0.5 mM). All cell cultures were maintained at 37° C. and 5% carbon dioxide. Motor neuron (MN) differentiation was carried out using a previously published protocol (Hall et al., 2017). Briefly, iPSCs were first differentiated to neuroepithelium by plating to 100% confluency in chemically defined medium consisting of DMEM/F12 Glutamax, Neurobasal, LGlutamine, N2 supplement, non-essential amino acids, B27 supplement, […] (all from Life Technologies) and insulin (Sigma). Treatment with small molecules from day 0-7 was as follows: 1 μM Dorsomorphin (Sigma), 2 μM SB431542 (Sigma), and 3 μM CHIR99021 (Sigma). At day 8, the neuroepithelial layer was enzymatically dissociated using dispase (GIBCO, 1 mg/ml), plated onto Geltrex coated plates and next patterned for 7 days with 0.5 μM retinoic acid and 1 μM Purmorphamine. At day 14 spinal cord MN precursors were treated with 0.1 μM Purmorphamine for a further 4 days before being terminally differentiated in 0.1 μM Compound E (Sigma) to promote cell cycle exit. Cells were treated with 10 μM Arimoclomol for 24 hours following terminal differentiation and fixed in PFA for immuno-labelling.

The test system of experiment [4] is HSP70. The following applies: treated versus untreated mVCP mice; cited from earlier work.
In experiment [5] the test system is mutant VCP (mVCP) mice. Description: Motor neuron counts and area measurements, sciatic pool of spinal cord. The following applies: 120 mg/kg daily orally, 4 to 14 months, FIG. 2. The format is in vivo, mouse. Here is the method: as §1
20 μm spinal cord sections from L3-L6 were stained with gallocyanin to visualise neurons for quantification (5 mice per group). […] 20 images of the sciatic pool regions of the spinal cord were taken per animal to measure the size distribution of motor neurons present in this area (at ×20 magnification). A minimum of 3 mice per experimental group were assessed. The soma area of motor neurons was determined by drawing around individual Nissl stained (gallocyanin) motor neuron cell bodies in cross-sectional images of L4-L5 region of the spinal cord. This was recorded using Leica Application Suite V3.8 analysis software and presented as a percentage of the total number of motor neurons per group.

The test system of experiment [6] is iPSC-derived motor neurons from mVCP patients. Briefly: TDP-43 immunostaining of mVCP patient iPSC-derived motor neurons. Type of experiment: cell-based, human. As to conditions: 10 μM for 24 hours, FIG. 12 A. Here is the method: as §4
The subject of experiment [7] is mutant VCP (mVCP) mice. Description: Immunohistochemistry of brain and spinal cord for pathology markers (TDP-43, ubiquitin, p-tau, p62, LC3, myelin, stress granule markers). The format is in vivo, mouse. As to conditions: 120 mg/kg daily orally, 4 to 14 months. Here is the method: as §1, §2, §3
Experiment [8] relates to mutant VCP (mVCP) mice. As to conditions: cited from earlier work.
Experiment [9] has as its system mutant VCP (mVCP) mice. Briefly: In vivo physiology of EDL muscle: motor unit counts and maximal tetanic force. Details: species or system mouse. As to conditions: 4 to 14 months, FIG. 1. Here is the method: as §1
In vivo physiology was carried out acutely at 14 months of age on terminally anaesthetized mice to quantify the number of motor units in the extensor digitorum longus (EDL) muscle in the hindlimb of mice in all experimental groups. Briefly, Isometric contractions were elicited by stimulating the Extensor Digitorum Longus (EDL) motor nerve using pulses of 0.02 ms duration and supramaximal intensity via electrodes. Contractions were elicited by stimulation of the sciatic nerve. The number of motor units in the EDL muscles was determined by stimulating the motor nerve with stimuli of increasing intensity, resulting in stepwise increments in twitch tension because of successive recruitment of motor axons.

[10] abbreviates: mVCP mice treated with Arimoclomol, previously published study.

On to `[O-][n+]1cccc(/C(Cl)=N/OC[C@H](O)CN2CCCCC2)c1` [Arimoclomol, N-[2-hydroxy-3-(1-piperidinyl)-propoxy]-pyridine-1-oxide-3-carboximidoyl chloride], for which the “fluorescence intensity of HSP70 immunoreactivity in spinal cord (quantification)” value in the experiment on HSP70 [1] (mVCP mice treated versus untreated, FIG. 8 B) is “enhanced”. Moreover, the “HSP70 expression in glial cells of spinal cord and brain” value in the experiment with HSP70 [1] (mVCP mice, 120 mg/kg daily orally, 4 to 14 months) is given as “increased expression of HSP70”. In the experiment with HSP70 [1] (mVCP mice, 120 mg/kg daily orally, 4 to 14 months, versus untreated mVCP, FIGS. 7 and 8), the “HSP70 expression in brain and spinal cord” value was “further augmented”. In addition, in the experiment with mutant VCP (mVCP) mice [2], the “TUNEL-positive apoptotic cells in brain cortex” value was “prevented the appearance of apoptotic cells”. Further, the HSP70 expression entry in the experiment with HSP70 [3] is “substantially increased”. For the same compound, in the experiment on HSP70 [4], the “expression of HSP70 in muscle (Western blot)” value is “two-fold”. Moreover, in the experiment with mutant VCP (mVCP) mice [5], the “motor neuron survival in sciatic pool (L3-6) of spinal cord” value is recorded as “reduction in motor neuron survival is prevented” and the “shift towards smaller motor neuron soma size” value is reported as “This shift is not seen”. In addition, the “cytoplasmic mislocalisation of TDP-43” value in experiment [6] is reported as “ameliorated”. For the same compound, in the experiment on mutant VCP (mVCP) mice [7] (FIG. 5), the “accumulation of p62 in spinal cord” value is recorded as “significantly ameliorated” and the “myelin abnormalities in spinal cord” value is listed as “significantly ameliorated”. The “increased LC3 expression in spinal cord” value in the experiment with mutant VCP (mVCP) mice [7] (FIG. 5 D) is given as “significantly ameliorated”. The “phosphorylated tau-positive (p-tau) extracellular aggregates/lesions in brain” value with mutant VCP (mVCP) mice [7] (FIG. 6) was “prevents the formation of these proteinaceous aggregates”. Moreover, the “TDP-43 cytoplasmic mislocalisation in brain and spinal cord” value with mutant VCP (mVCP) mice [7] (FIGS. 3 and 4) is “TDP-43 mislocalisation was reduced”. For the same compound, the “ubiquitin-positive intracellular aggregates in brain and spinal cord” value in the experiment on mutant VCP (mVCP) mice [7] (FIGS. 5 and 6) was “prevents the formation of these proteinaceous aggregates”. For the same compound, in the experiment with mutant VCP (mVCP) mice [8] (14 month old mVCP mice, versus wt-VCP controls, previously published study), the “maximal tetanic force of EDL muscle” value is recorded as “prevented this reduction in muscle force”. In the experiment with mutant VCP (mVCP) mice [8] (setting [10]), the “myofibre atrophy and degeneration” value was “reduced myofibre atrophy and degeneration”; the “protein aggregation and TDP-43 mislocalisation in skeletal muscle” value is “decreased protein aggregation and TDP-43 mislocalisation”. Besides, the “decline in grip strength relative to body weight” value with mutant VCP (mVCP) mice [8] (mVCP mice, 4 to 14 months of age, untreated mVCP 44.1% reduction) is listed as “no significant decline in grip strength”. Further, in the experiment with mutant VCP (mVCP) mice [9] (120 mg/kg daily orally in drinking water), the “number of motor units in EDL muscle (motor unit survival)” value is listed as “reduction in motor unit survival is prevented”. Moreover, the “muscle force generated by the EDL muscle” value in the experiment on mutant VCP (mVCP) mice [9] (120 mg/kg daily orally, versus untreated mice) was “significantly greater than in untreated mice”.
